Assay results published in PubChem BioAssay (NCI).
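Exposure lasted 48 hours, with cells grown in 96-well plates and compounds tested at five concentrations. At the GI50, growth is halved. TGI: total growth inhibition.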

Experiments:
Test in all cases: growth of human tumour cells (NCI), 48 h
786-0 renal = test system: 786-0 renal
A498 renal = test system: A498 renal
A549 NSCLC = test system: A549 NSCLC
ACHN renal = test system: ACHN renal
BT-549 breast = test system: BT-549 breast
CAKI-1 renal = test system: CAKI-1 renal
CCRF-CEM leukemia = test system: CCRF-CEM leukemia
COLO 205 colon = test system: COLO 205 colon
DU-145 prostate = test system: DU-145 prostate
EKVX NSCLC = test system: EKVX NSCLC
HCT-116 colon = test system: HCT-116 colon
HCT-15 colon = test system: HCT-15 colon
HOP-62 NSCLC = test system: HOP-62 NSCLC
HOP-92 NSCLC = test system: HOP-92 NSCLC
HS 578T breast = test system: HS 578T breast
HT29 colon = test system: HT29 colon
IGROV1 ovarian = test system: IGROV1 ovarian
K-562 leukemia = test system: K-562 leukemia
KM12 colon = test system: KM12 colon
LOX IMVI melanoma = test system: LOX IMVI melanoma
M14 melanoma = test system: M14 melanoma
MALME-3M melanoma = test system: MALME-3M melanoma
MCF7 breast = test system: MCF7 breast
MDA-MB-231 breast = test system: MDA-MB-231 breast
MDA-MB-435 = test system: MDA-MB-435
MOLT-4 leukemia = test system: MOLT-4 leukemia
NCI-H226 lung = test system: NCI-H226 lung
NCI-H23 lung = test system: NCI-H23 lung
NCI-H460 lung = test system: NCI-H460 lung
NCI-H522 lung = test system: NCI-H522 lung
NCI/ADR-RES ovarian = test system: NCI/ADR-RES ovarian
OVCAR-3 ovarian = test system: OVCAR-3 ovarian
OVCAR-4 ovarian = test system: OVCAR-4 ovarian
OVCAR-5 ovarian = test system: OVCAR-5 ovarian
OVCAR-8 ovarian = test system: OVCAR-8 ovarian
PC-3 prostate = test system: PC-3 prostate
RPMI-8226 leukemia = test system: RPMI-8226 leukemia
RXF 393 renal = test system: RXF 393 renal
SF-268 CNS = test system: SF-268 CNS
SF-295 CNS = test system: SF-295 CNS
SF-539 CNS = test system: SF-539 CNS
SK-MEL-2 melanoma = test system: SK-MEL-2 melanoma
SK-MEL-28 melanoma = test system: SK-MEL-28 melanoma
SK-MEL-5 melanoma = test system: SK-MEL-5 melanoma
SK-OV-3 ovarian = test system: SK-OV-3 ovarian
SN12C renal = test system: SN12C renal
SNB-19 CNS = test system: SNB-19 CNS
SNB-75 CNS = test system: SNB-75 CNS
SR leukemia = test system: SR leukemia
SW-620 colon = test system: SW-620 colon
T-47D breast = test system: T-47D breast
TK-10 renal = test system: TK-10 renal
U251 CNS = test system: U251 CNS
UACC-257 melanoma = test system: UACC-257 melanoma
UACC-62 melanoma = test system: UACC-62 melanoma
UO-31 renal = test system: UO-31 renal
HCC-2998 colon = test system: HCC-2998 colon
HL-60(TB) leukemia = test system: HL-60(TB) leukemia

Oc1ccc(N=Cc2ccc(C=Nc3ccc(O)cc3)cc2)cc1
TGI (786-0 renal): 31.4 µM
TGI (A498 renal): 94.2 µM
TGI (A549 NSCLC): 38.4 µM
TGI (ACHN renal): 26 µM
TGI (BT-549 breast): 33.8 µM
TGI (CAKI-1 renal): 35.1 µM
TGI (CCRF-CEM leukemia): 30.7 µM
TGI (COLO 205 colon): 39.2 µM
TGI (DU-145 prostate): 32.4 µM
TGI (EKVX NSCLC): 83.6 µM
TGI (HCT-116 colon): 36.8 µM
TGI (HCT-15 colon): 29.1 µM
TGI (HOP-62 NSCLC): 37.1 µM
TGI (HOP-92 NSCLC): 62.7 µM
TGI (HS 578T breast): 60.1 µM
TGI (HT29 colon): 89.4 µM
TGI (IGROV1 ovarian): 39 µM
TGI (K-562 leukemia): 40.4 µM
TGI (KM12 colon): 33.3 µM
TGI (LOX IMVI melanoma): 41.4 µM
TGI (M14 melanoma): 34.5 µM
TGI (MALME-3M melanoma): 34.4 µM
TGI (MCF7 breast): > 100 µM
TGI (MDA-MB-231 breast): 27.7 µM
TGI (MDA-MB-435): 32.7 µM
TGI (MOLT-4 leukemia): 20 µM
TGI (NCI-H226 lung): 29.5 µM
TGI (NCI-H23 lung): 34.8 µM
TGI (NCI-H460 lung): 72.7 µM
TGI (NCI-H522 lung): 59.9 µM
TGI (NCI/ADR-RES ovarian): 34.2 µM
TGI (OVCAR-3 ovarian): 32.6 µM
TGI (OVCAR-4 ovarian): 29.6 µM
TGI (OVCAR-5 ovarian): 38.7 µM
TGI (OVCAR-8 ovarian): 29.3 µM
TGI (PC-3 prostate): 33 µM
TGI (RPMI-8226 leukemia): 81.6 µM
TGI (RXF 393 renal): 34.9 µM
TGI (SF-268 CNS): 30.8 µM
TGI (SF-295 CNS): 32.3 µM
TGI (SF-539 CNS): 28.6 µM
TGI (SK-MEL-2 melanoma): 49.9 µM
TGI (SK-MEL-28 melanoma): 37.3 µM
TGI (SK-MEL-5 melanoma): 29.8 µM
TGI (SK-OV-3 ovarian): 32.4 µM
TGI (SN12C renal): 28.5 µM
TGI (SNB-19 CNS): 31.6 µM
TGI (SNB-75 CNS): 41.5 µM
TGI (SR leukemia): 25.9 µM
TGI (SW-620 colon): 45.8 µM
TGI (T-47D breast): > 100 µM
TGI (TK-10 renal): 34 µM
TGI (U251 CNS): 27.6 µM
TGI (UACC-257 melanoma): 32.4 µM
TGI (UACC-62 melanoma): 25.5 µM
TGI (UO-31 renal): 34 µM

CC1CN1C1=CC(=O)c2c(c(CO)cn2C)C1=O (stereo not given)
GI50 (786-0 renal): 0.232 µM
TGI (786-0 renal): 2.52 µM
GI50 (A498 renal): 0.358 µM
TGI (A498 renal): 1.76 µM
GI50 (A549 NSCLC): 0.0623 µM
TGI (A549 NSCLC): 3.18 µM
GI50 (BT-549 breast): 0.293 µM
TGI (BT-549 breast): 1.57 µM
GI50 (CAKI-1 renal): 0.018 µM
TGI (CAKI-1 renal): 0.293 µM
GI50 (CCRF-CEM leukemia): 3.35 µM
TGI (CCRF-CEM leukemia): 62.8 µM
GI50 (COLO 205 colon): 0.171 µM
GI50 (DU-145 prostate): < 0.0112 µM
TGI (DU-145 prostate): 0.234 µM
GI50 (EKVX NSCLC): 3.09 µM
TGI (EKVX NSCLC): 17 µM
GI50 (HCC-2998 colon): 0.105 µM
TGI (HCC-2998 colon): 0.415 µM
GI50 (HCT-116 colon): 0.137 µM
TGI (HCT-116 colon): 1.03 µM
GI50 (HCT-15 colon): 0.0651 µM
TGI (HCT-15 colon): 0.649 µM
GI50 (HL-60(TB) leukemia): 22.9 µM
TGI (HL-60(TB) leukemia): 75.2 µM
GI50 (HOP-62 NSCLC): 0.062 µM
TGI (HOP-62 NSCLC): 0.386 µM
GI50 (HOP-92 NSCLC): 9.92 µM
TGI (HOP-92 NSCLC): 35.6 µM
GI50 (HS 578T breast): 0.689 µM
GI50 (HT29 colon): 0.22 µM
GI50 (IGROV1 ovarian): 0.306 µM
TGI (IGROV1 ovarian): 5.15 µM
GI50 (K-562 leukemia): 0.833 µM
TGI (K-562 leukemia): 64.5 µM
GI50 (KM12 colon): 0.261 µM
TGI (KM12 colon): 1.38 µM
GI50 (LOX IMVI melanoma): 0.066 µM
TGI (LOX IMVI melanoma): 0.387 µM
GI50 (M14 melanoma): 0.0139 µM
TGI (M14 melanoma): 0.127 µM
GI50 (MCF7 breast): 0.0634 µM
GI50 (MDA-MB-231 breast): 20 µM
TGI (MDA-MB-231 breast): 46.2 µM
GI50 (MDA-MB-435): 0.311 µM
TGI (MDA-MB-435): 1.32 µM
GI50 (MOLT-4 leukemia): 5.43 µM
TGI (MOLT-4 leukemia): > 100 µM
GI50 (NCI-H226 lung): 0.324 µM
TGI (NCI-H226 lung): 2.1 µM
TGI (NCI-H23 lung): 0.0265 µM
TGI (NCI-H460 lung): 0.651 µM
GI50 (NCI-H522 lung): 0.2 µM
TGI (NCI-H522 lung): 1.98 µM
GI50 (NCI/ADR-RES ovarian): 0.0848 µM
TGI (NCI/ADR-RES ovarian): 0.926 µM
GI50 (OVCAR-3 ovarian): 0.254 µM
TGI (OVCAR-3 ovarian): 1.11 µM
GI50 (OVCAR-4 ovarian): 1.66 µM
TGI (OVCAR-4 ovarian): 6.34 µM
GI50 (OVCAR-5 ovarian): 1.55 µM
TGI (OVCAR-5 ovarian): 14.8 µM
GI50 (OVCAR-8 ovarian): 0.628 µM
TGI (OVCAR-8 ovarian): > 20.5 µM
GI50 (PC-3 prostate): 0.313 µM
TGI (PC-3 prostate): 3.3 µM
GI50 (RPMI-8226 leukemia): 0.241 µM
TGI (RPMI-8226 leukemia): 3.32 µM
GI50 (RXF 393 renal): 0.861 µM
GI50 (SF-268 CNS): 0.257 µM
TGI (SF-268 CNS): 5.28 µM
GI50 (SF-295 CNS): 0.076 µM
TGI (SF-295 CNS): 0.566 µM
GI50 (SF-539 CNS): 0.0313 µM
TGI (SF-539 CNS): 0.23 µM
GI50 (SK-MEL-2 melanoma): 0.3 µM
TGI (SK-MEL-2 melanoma): 3.32 µM
GI50 (SK-MEL-28 melanoma): 0.491 µM
GI50 (SK-MEL-5 melanoma): 0.0577 µM
TGI (SK-MEL-5 melanoma): 0.191 µM
GI50 (SK-OV-3 ovarian): 0.509 µM
TGI (SK-OV-3 ovarian): 23.2 µM
GI50 (SN12C renal): 0.0706 µM
TGI (SN12C renal): 1.28 µM
GI50 (SNB-19 CNS): 0.247 µM
TGI (SNB-19 CNS): 3.74 µM
GI50 (SNB-75 CNS): 0.438 µM
TGI (SNB-75 CNS): 2.65 µM
GI50 (SR leukemia): 0.0112 µM
TGI (SR leukemia): 0.069 µM
GI50 (SW-620 colon): 0.105 µM
TGI (SW-620 colon): 1.02 µM
GI50 (T-47D breast): 8.34 µM
TGI (T-47D breast): > 34.6 µM
GI50 (TK-10 renal): 0.261 µM
TGI (TK-10 renal): 1.49 µM
GI50 (U251 CNS): 0.152 µM
TGI (U251 CNS): 0.835 µM
GI50 (UACC-257 melanoma): 0.925 µM
TGI (UACC-257 melanoma): 3.65 µM
GI50 (UACC-62 melanoma): 0.144 µM
TGI (UACC-62 melanoma): 0.431 µM
GI50 (UO-31 renal): 0.124 µM
TGI (UO-31 renal): 0.386 µM
